≈ marks a conversion by molar mass, not a printed value.
Tests used:
[1] = Liptin-PG binding in solution (ITC and/or 1H NMR titration)
Description: The lipid binding ability of liptins 1-3 (FIG. 2A) have been investigated in solution using isothermal titration calorimetry (ITC) and/or ^1H NMR. Stoichiometry of binding was accomplished with Job plots using ^1H NMR. […] The use of organic solvents allowed the determination of binding motif using ^1H NMR.
Liptins 1b, 1e, 2c, 2d, 3a, 3c in DMF/5% CHCl3; 3e in 50% DMSO, 45% CHCl3, 5% CH3OH.
Liptins 1h and 1i 40% DMSO, 60% CHCl3, 3f in 20% DMSO, 80% CHCl3.

[2] = system: E. coli; test: BacLight Bacterial Membrane Potential kit, plasma membrane depolarization; type: cell-based; settings: one half the liptins' MICs; concentration dependent
Description: (§1) The Molecular Probes BacLight® Bacterial Membrane Potential kit was used to detect changes in the polarization of the bacterial plasma membrane upon inoculation of bacteria with varying concentrations of liptins 1h or 1k. […] CCCP (carbonyl cyanide 3-chlorophenylhydrazone) is a proton ionophore that destroys plasma membrane potential and as such is a positive control. […] With plasma membrane depolarization the bacterial cell loses its ability to synthesize ATP and proteins. Additionally loss of membrane potential stops the ability for cell replication due to an inability for proper placement of divisome proteins in the plasma membrane. […] Thus, it is possible that the liptin's mechanism of action is a result of their deleterious effect on the functioning of electron transport proteins found in the plasma membrane.

[3] = system: S. aureus; test: as above; type: cell-based; settings: one half the liptins' MICs; concentration dependent
Description: as §1

[4] = system: MRSA; test: Live-Dead stain (BacLight SYTO 9 / propidium iodide); type: cell-based, Methicillin-resistant S. aureus; settings: 90 minutes
Description: (§2) Molecular Probes BacLight© kits containing the SYTO 9 green-fluorescent dye and propidium iodide red-fluorescent dye were used to detect live or dead bacteria after ninety minute exposure of bacteria to liptins 1h or 1k. Bacteria in Muller Hinton culture were grown to an OD=0.3, were inoculated with liptins 1h and 1k and after ninety minutes stained with a mixture of the above dyes and affixed to a slide to be examined under a light microscope (40×) to determine the number of live and dead cells (green colored cells considered alive and red-colored cells considered dead). Data was calculated based upon an average of 5 different plate counts from each slide, and is based on a percent of total bacteria counted (live and dead). Control sample contains no liptin.

[5] = system: Escherichia coli; test: MIC in cation-adjusted Muller Hinton culture; type: cell-based; settings: no growth after 24 hours
Description: (§3) MICs were determined in cation-adjusted Muller Hinton culture. Standard CLSI protocol for serial dilutions of liptin concentrations were used to determine the MIC, starting at 0.01 OD. Two different experimental cultures were used and each data point measured in triplicate.

[6] = system: Pseudomonas aeruginosa; test: MIC in cation-adjusted Muller Hinton culture; type: cell-based; settings: no growth after 24 hours
Description: as §3

[7] = system: Mycobacterium smegmatis; test: MIC in cation-adjusted Muller Hinton culture; type: cell-based; settings: no growth after 24 hours
Description: as §3

[8] = system: Klebsiella pneumoniae; test: MIC in cation-adjusted Muller Hinton culture; type: cell-based; settings: no growth after 24 hours
Description: as §3

[9] = system: Staphylococcus aureus; test: MIC in cation-adjusted Muller Hinton culture; type: cell-based; settings: no growth after 24 hours
Description: as §3

[10] = system: Acinetobacter baumannii; test: MIC in cation-adjusted Muller Hinton culture; type: cell-based; settings: no growth after 24 hours
Description: as §3

[11] = system: MRSA; test: MIC in cation-adjusted Muller Hinton culture; type: cell-based, Methicillin-resistant S. aureus; settings: no growth after 24 hours
Description: as §3

[12] = system: Gram-positive and Gram-negative bacteria; test: Growth curves in BHI culture with liptins 1h-k; type: cell-based; settings: one inoculation
Description: Growth curves in BHI culture were generated (not shown) from liquid shake-flask cultures using absorbance measurements at 600 nm at different concentrations of liptins 1h-k. Uninoculated control flasks were used as blanks. Absorbance values of 0.1 OD unit was considered reasonable threshold for positive growth. The use of the nutrient-rich BHI culture allowed us to measure the effects of the small structural differences in liptins 1h-k on bacterial growth rates over long periods of time. […] Liptin exposure appears to stop bacterial growth, as evidenced by long lag phases, which increase with liptin concentration, and growth rates and maximum cell densities are decreased with liptin treatment.

[13] = system: A549 (lung carcinoma epithelial) cells; test: LDH release cytotoxicity assay; type: cell-based; settings: near 15 μM
Description: (§4) Toxicity Studies of human HeLa (vaginal carcinoma) and A549 (lung carcinoma epithelial) cells with Liptins 1h and 1k.
(§5) Eukaryote cell toxicity was determined using a Pierce LDH assay kit including the Chemical Compound-Mediated Cytotoxicity assay. This kit measures cell death by measuring the amount of lactate dehydrogenase released from cells. Lactate dehydrogenase (LDH) is a cytosolic enzyme present in many different types of cells. When the plasma membrane is damaged, LDH is released into cell culture media. The released LDH can be quantified by a coupled enzymatic reaction. First, LDH catalyzes the conversion of lactate to pyruvate via reduction of NAD+ to NADH. Second, diaphorase uses NADH to reduce a tetrazolium salt (INT) to a red formazan product. Therefore, the level of formazan formation is directly proportional to the amount of released LDH in the medium.

[14] = system: human HeLa (vaginal carcinoma) cells; test: LDH release cytotoxicity assay; type: cell-based; settings: up to about 15 μM
Description: as §4, §5

[15] = system: MRSA; test: MBC in cation-adjusted Muller Hinton culture; type: cell-based, Methicillin-resistant S. aureus
Description: as §3, with “Minimum bactericidal concentration (MBC)” for “MICs”, “MBC,” for “MIC,”

[16] = system: Escherichia coli; test: Live-Dead stain (BacLight SYTO 9 / propidium iodide); type: cell-based; settings: 10 μM, 90 minutes
Description: as §2

[17] = system: Mycobacterium smegmatis; test: as above; type: cell-based; settings: 5 μM, 90 minutes
Description: as §2

[18] = system: Klebsiella pneumoniae; test: as above; type: cell-based; settings: 90 minutes
Description: as §2

[19] = system: Staphylococcus aureus; test: as above; type: cell-based; settings: 5 μM, 90 minutes
Description: as §2

[20] = system: Acinetobacter baumannii; test: as above; type: cell-based; settings: 5 μM, 90 minutes
Description: as §2

[21] = system: Escherichia coli; test: MBC in cation-adjusted Muller Hinton culture; type: cell-based
Description: as §3, with “Minimum bactericidal concentration (MBC)” for “MICs”, “MBC,” for “MIC,”

[22] = system: Mycobacterium smegmatis; test: MBC in cation-adjusted Muller Hinton culture; type: cell-based
Description: as §3, with “Minimum bactericidal concentration (MBC)” for “MICs”, “MBC,” for “MIC,”

[23] = system: Klebsiella pneumoniae; test: MBC in cation-adjusted Muller Hinton culture; type: cell-based
Description: as §3, with “Minimum bactericidal concentration (MBC)” for “MICs”, “MBC,” for “MIC,”

[24] = system: Staphylococcus aureus; test: MBC in cation-adjusted Muller Hinton culture; type: cell-based
Description: as §3, with “Minimum bactericidal concentration (MBC)” for “MICs”, “MBC,” for “MIC,”

[25] = system: Acinetobacter baumannii; test: MBC in cation-adjusted Muller Hinton culture; type: cell-based
Description: as §3, with “Minimum bactericidal concentration (MBC)” for “MICs”, “MBC,” for “MIC,”

[26] = NMR titrations, DMF/5% CHCl3, 1:1 binding stoichiometry
[27] = ITC or NMR titrations, 40% DMSO, 60% CHCl3

Cc1ccc2c(c1)CNCCCNCc1cc(C)ccc1OCCCCCO2 [Liptin 1b] showed a Ka [1, 26] of 200 M⁻¹.

Work on Cc1ccc2c(c1)CNCCCCNCc1cc(C)ccc1OCCCCO2 [Liptin 1e] yielded a Ka [1, 26] of 250 M⁻¹.

With CCCCCCNC(=O)CCc1ccc2c(c1)CNCCCNCc1cc(CCC(=O)NCCCCCC)ccc1OCCCCCO2 [Liptin 1h] the “plasma membrane depolarization (red/green fluorescence ratio)” value [2] was “large membrane depolarization”, the “plasma membrane depolarization (red/green fluorescence ratio)” value [3] was “large membrane depolarization” and the Dead ([4]; 5 μM) was 72%. The Live ([4]; 5 μM) was 28%, the Dead ([4]; 10 μM) was 84% and the Live ([4]; 10 μM) was 15%. It also gave an MIC [5] of 2 µM (≈ 1.33 µg/mL), an MIC [6] of 9 µM (≈ 5.98 µg/mL) and an MIC [7] of 2.5 µM (≈ 1.66 µg/mL). For the same molecule, the MIC [8] was 3 µM (≈ 1.99 µg/mL), the MIC [9] was 2.5 µM (≈ 1.66 µg/mL) and the MIC [10] was 2.5 µM (≈ 1.66 µg/mL). For the same molecule, the MIC [11] was 3 µM (≈ 1.99 µg/mL), the “antibacterial activity from growth curves” value [12] was “most potent” and the “cytotoxicity (LDH release)” value [13] was “over 25%”. The “cell toxicity (LDH release)” value [14] was “large toxicity”, the Ka [1, 27] was 4600 M⁻¹ and the MBC [15] was 10 µM (≈ 6.65 µg/mL). For the same molecule, the Dead [16] was 75%, the Live [16] was 35% and the Dead [17] was 93%. The Live [17] was 7%, the Dead ([18]; 5 μM) was 67% and the Live ([18]; 5 μM) was 33%. It also gave a Dead ([18]; 10 μM) of 100%, a Live ([18]; 10 μM) of 0% and a Dead [19] of 39%. It also gave a Live [19] of 61%, a Dead [20] of 88% and a Live [20] of 12%. The MBC [21] was 9 µM (≈ 5.98 µg/mL), the MBC [22] was 11.5 µM (≈ 7.65 µg/mL) and the MBC [23] was 8.5 µM (≈ 5.65 µg/mL). It also gave an MBC [24] of 11 µM (≈ 7.31 µg/mL) and an MBC [25] of 8.5 µM (≈ 5.65 µg/mL).

For CCCCCCNC(=O)CCc1ccc2c(c1)CNCCCNCc1cc(CCC(=O)NCCCCCC)ccc1OCCCCO2 [Liptin 1i], the MIC [5] was 3 µM (≈ 1.95 µg/mL), the MIC [6] was 12 µM (≈ 7.81 µg/mL) and the MIC [7] was 3 µM (≈ 1.95 µg/mL). The MIC [8] was 4 µM (≈ 2.6 µg/mL), the MIC [9] was 3 µM (≈ 1.95 µg/mL) and the MIC [10] was 3.5 µM (≈ 2.28 µg/mL). The MIC [11] was 3.5 µM (≈ 2.28 µg/mL), the Ka [1, 27] was 1500 M⁻¹ and the MBC [15] was 11.5 µM (≈ 7.49 µg/mL). The MBC [21] was 14 µM (≈ 9.11 µg/mL), the MBC [22] was 10.5 µM (≈ 6.83 µg/mL) and the MBC [23] was 12 µM (≈ 7.81 µg/mL). It also gave an MBC [24] of 10.5 µM (≈ 6.83 µg/mL) and an MBC [25] of 11.5 µM (≈ 7.49 µg/mL).

In the case of CCCCCCNC(=O)CCc1ccc2c(c1)CNCCCCNCc1cc(CCC(=O)NCCCCCC)ccc1OCCCCO2 [Liptin 1j], the MIC [5] is reported as 3.5 µM (≈ 2.33 µg/mL), the MIC [6] is reported as 14 µM (≈ 9.31 µg/mL) and the MIC [7] is reported as 3.5 µM (≈ 2.33 µg/mL). For the same molecule, the MIC [8] was 3.5 µM (≈ 2.33 µg/mL), the MIC [9] was 4 µM (≈ 2.66 µg/mL) and the MIC [10] was 4 µM (≈ 2.66 µg/mL). For the same molecule, the MIC [11] was 4.5 µM (≈ 2.99 µg/mL), the MBC [15] was 15 µM (≈ 9.97 µg/mL) and the MBC [21] was 15 µM (≈ 9.97 µg/mL). For the same molecule, the MBC [22] was 12 µM (≈ 7.98 µg/mL), the MBC [23] was 13 µM (≈ 8.64 µg/mL) and the MBC [24] was 15.5 µM (≈ 10.3 µg/mL). The MBC [25] was 12.5 µM (≈ 8.31 µg/mL).

From US10668048B2, “Compounds for inhibiting bacterial growth via phosphatidylglycerol binding” (Wichita State University, priority 2016, dated 2020)
